We go through five molecules from PMC3839997, “Identification of Glucose Transporters in Aspergillus nidulans” (PLoS ONE, 2013).

In assay [1] the target is T1, HxtC (Aspergillus nidulans, UniProt C8VDD8).
T1 construct: gene ANIA_10891; full-length ORF from cDNA, untagged (with stop codon), expressed from pRH195 in S. cerevisiae EBY.VW4000; strain A4 given for the GFP construct
The assay can be described thus: competition of […]glucose uptake in S. cerevisiae EBY.VW4000 expressing the transporter. It counts as cell-based. The following applies: tenfold excess of unlabelled sugar over [14C]glucose.

Assay [2] deals with T1, HxtC. Briefly: […]glucose uptake in S. cerevisiae EBY.VW4000 expressing the transporter. It counts as cell-based. The following applies: labelled compound; 30 °C; proton symport.

T1 sequence (C8VDD8 entry or part of it): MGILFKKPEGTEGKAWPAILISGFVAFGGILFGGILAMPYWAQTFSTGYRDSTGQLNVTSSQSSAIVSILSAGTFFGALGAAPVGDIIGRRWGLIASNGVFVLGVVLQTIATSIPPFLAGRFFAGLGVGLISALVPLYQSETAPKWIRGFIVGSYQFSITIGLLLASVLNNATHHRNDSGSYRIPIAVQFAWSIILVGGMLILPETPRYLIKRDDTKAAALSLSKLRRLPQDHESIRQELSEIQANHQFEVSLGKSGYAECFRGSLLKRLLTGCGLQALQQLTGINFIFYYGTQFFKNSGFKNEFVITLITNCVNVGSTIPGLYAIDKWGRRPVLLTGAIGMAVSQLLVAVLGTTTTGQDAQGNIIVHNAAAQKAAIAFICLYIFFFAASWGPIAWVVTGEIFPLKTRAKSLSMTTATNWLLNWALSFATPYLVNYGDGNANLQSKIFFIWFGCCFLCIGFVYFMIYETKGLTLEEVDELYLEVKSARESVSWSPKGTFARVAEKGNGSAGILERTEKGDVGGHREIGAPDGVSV

As to `OC[C@H]1OC(O)[C@H](O)[C@@H](O)[C@H]1O` (some centres unmarked) [galactose], the “% inhibition” value in assay [1] is “unlabeled maltose, galactose, fructose and mannose were also able to inhibit to different levels”.
Same read-out and setting: as for `OC[C@H]1OC(O)[C@@H](O)[C@@H](O)[C@@H]1O` (some centres unmarked) [mannose], the entry is “unlabeled maltose, galactose, fructose and mannose were also able to inhibit to different levels”.
`OC[C@H]1OC(O)[C@H](O)[C@@H](O)[C@@H]1O` (some centres unmarked) [glucose]: in assay [2], the “[14C]glucose uptake in S. cerevisiae EBY.VW4000 expressing the transporter” value is “these data suggested that HxtB, HxtC, and HxtE mediated glucose transport via active proton symport”.
In the case of `OC[C@H]1O[C@H](O[C@H]2[C@H](O)[C@@H](O)C(O)O[C@@H]2CO)[C@H](O)[C@@H](O)[C@@H]1O` (some centres unmarked) [maltose], in assay [1], the “% inhibition” value was “unlabeled maltose, galactose, fructose and mannose were also able to inhibit to different levels”.
Still for that read-out and setting: with `OCC1(O)OC[C@@H](O)[C@@H](O)[C@@H]1O` (some centres unmarked) [fructose] the entry was “unlabeled maltose, galactose, fructose and mannose were also able to inhibit to different levels”.
